According to a melting point compilation (Tetko et al.; mined from patent text by program, amines drawn as free bases though some values may be those of a salt):

First: O=C1NC(=S)SC1=Cc1ccc2c(c1)N(OCc1ccc(C(F)(F)F)cc1)C(=O)CO2
Second: Cc1nc(N2CCCC(NCc3ccc(C(F)(F)F)cc3)C2=O)sc1C(=O)NCc1ccccc1 (centres undefined)
The melting point of the first is higher: > 300 °C for the first, 39 to 40 °C for the second.

Compared with `Cc1c(-c2cc(C(=O)OC(C)C)c(Cl)cc2F)nn(C)c1C(F)(F)F`, `CC(=CC(=O)c1cccc(C(F)(F)F)c1)N(C)C` is lower in melting point: 72 °C for the first, 69 to 70 °C for the second.

First: O=C1CCC(N2C(=O)c3cccc(CNC(=O)Nc4ccc5c(c4)OCO5)c3C2=O)C(=O)N1 (centres undefined)
Second: COc1ccccc1C(=O)Nc1ccc(CN2C(=O)[C@H]3CCC[C@H]3N(C(=O)CN3C(=O)c4ccccc4C3=O)c3ccccc32)cc1 (relative stereo)
The melting point of the first is lower: 216 to 218 °C for the first, 279 to 281 °C for the second.

Compared with `CC(C(N)=O)c1ccc(Oc2ccc(F)cc2F)cc1` (centres undefined), `FC(F)(F)c1cccc(OC(c2ccc(Cl)cc2)c2ncco2)c1` (centres undefined) is lower in melting point: 107 to 110 °C for the first, 66 to 67 °C for the second.

First: CC(O)c1nccc(N2CCc3cc(-c4ccsc4)ccc3C2)n1 (centres undefined)
Second: C#Cc1ccc2c(c1)N(c1ncnc3cc(OC)c(OC)cc13)CC2
The melting point of the first is lower: 126 to 128 °C for the first, 241 to 243 °C for the second.

First: CN(O)C(=O)C(=Cc1ccc2ccccc2c1)c1ccc(Cl)cc1
Second: O=C(O)c1ccc(NCCOc2cccc3ccccc23)cc1
The melting point of the first is lower: 140 to 142 °C for the first, 193 to 194 °C for the second.

Compared with `Oc1cc2c(cc1C=CCc1ccccc1)OCO2`, `COc1cc(CBr)ccc1-c1ccccc1` is higher in melting point: 83 °C for the first, 187 to 189 °C for the second.

First: CSc1ncc(Cc2ccccn2)c(=O)[nH]1
Second: O=S(=O)(Nc1nc2ncccn2n1)c1ccccc1Cl
The melting point of the first is lower: 195 to 198 °C for the first, 254 to 256 °C for the second.

First: O=C(O)c1cn(-c2cnsn2)c2nc(Cl)c(F)cc2c1=O
Second: CC(C)(C)C(NC(=O)c1ccc(Cl)cc1)Nc1c(Nc2ccncc2)c(=O)c1=O (centres undefined)
The melting point of the first is lower: 222 to 223 °C for the first, 244 to 246 °C for the second.

Compared with `C=C(C(=O)O)c1ccccc1OC`, `CCCc1ccc(NC=C(C(=O)OCC)C(=O)c2ccccc2Cl)cc1` is lower in melting point: 144 °C for the first, 98.5 to 104 °C for the second.

First: O=C1COC(c2ccccc2)c2ccccc2N1 (centres undefined)
Second: O=C(Cl)c1cnc2cc(OCc3ccccc3)c(OCc3ccccc3)cn2c1=O
The melting point of the first is higher: 193 to 195 °C for the first, 152 °C for the second.

Compared with `CC(C)Cn1c(=O)n(C)c(=O)c2c(Sc3cccc(O)c3)n(Cc3cccc4ccccc34)cc21`, `CONC(=O)Nc1ccc(-c2sc3c(c2CN(C)C(C)c2ccccc2)c(=O)n(-c2ccccn2)c(=O)n3Cc2c(F)cccc2F)cc1` (centres undefined) is higher in melting point: 150 to 151 °C for the first, 168 to 170 °C for the second.

First: CC(C)(O)CCNC(=O)c1nn(C2CCCCO2)cc1NC(=O)c1ccccn1 (centres undefined)
Second: CC(=O)OCCCn1c(NC(=O)c2cccs2)nc2cc(C(=O)N(C)C3CCCCC3)ccc21
The melting point of the first is higher: 138 to 139 °C for the first, 74 to 76 °C for the second.

Compared with `COc1ccc(C(CC2=NN(C)C(=O)C2)c2ccccc2)cc1OC1CCCC1` (centres undefined), `O=C(Nc1ccc(OCCN2CCCC2=O)c2ccccc12)c1cc(F)cc(N2CCCCC2)c1` is higher in melting point: 105 to 108 °C for the first, 161 to 162 °C for the second.

First: CC(C)(C)OC(=O)NOCC(=O)NNC(=O)c1cc(S(=O)(=O)O)cc(OCc2ccccc2)c1OCc1ccccc1
Second: CC(C)c1nc(CC(=O)N[C@H](C(=O)N[C@@H](Cc2ccccc2)C[C@H](O)[C@H](Cc2ccccc2)NC(=O)OCc2cncs2)C(C)C)cs1
The melting point of the first is lower: 103 to 105 °C for the first, 153 to 155 °C for the second.

First: CC(O)C#CC1(O)C(C)C=CCC1(C)C (centres undefined)
Second: CC(C)CCCC(C)C1CCC2C3CC=C4CC(OCCO)CCC4(C)C3CCC12C (centres undefined)
The melting point of the first is higher: 101 to 104 °C for the first, 92 to 95 °C for the second.

Compared with `CN1CCN(CC(=O)C2CC3c4cccc5[nH]cc(c45)CC3N(C)C2)CC1` (centres undefined), `CC(=O)NC[C@H]1CN(c2ccc(N3CCC(n4cc(C=O)nn4)CC3)c(F)c2)C(=O)O1` is lower in melting point: 198 to 202 °C for the first, 168 to 170 °C for the second.

First: CC(C)c1ccccc1N1C(=O)CS/C1=N\C(=O)Nc1ccc(-c2nnc(-c3ccc(OC(F)(F)C(F)(F)F)cc3)o2)cc1
Second: CSc1ccccc1NC(=O)Nc1ccc(N2CCN(C(=O)Nc3ccc(OCCO)cc3C(F)(F)F)CC2)cc1
The melting point of the first is higher: 244 to 247 °C for the first, 115 to 116 °C for the second.

First: CC(=O)Nn1c(=O)c(=O)[nH]c2ccccc21
Second: CC1=Nc2ccccc2S(=O)(=O)N1
The melting point of the first is lower: 211 to 213 °C for the first, 260 to 261 °C for the second.

First: CSc1ccc(-c2nn(Cc3ccc(F)cc3F)c(=S)cc2-c2ccc(Cl)cc2)cc1
Second: COC(=O)c1ccc(-c2ccc(-c3ccccc3)c(-c3ccc4c(c3)C(C)(C)CCC4(C)C)c2)cc1C
The melting point of the first is higher: 176 to 177 °C for the first, 130 to 132 °C for the second.

First: O=C(NC(=O)c1c(Cl)cccc1Cl)Nc1ccc(C(F)(F)F)cc1
Second: O=C(O)c1cc(NC(=O)C(CS)Cc2ccccc2)ccc1Cl (centres undefined)
The melting point of the first is higher: 200 °C for the first, 190 to 192 °C for the second.

First: CCCCSc1cc(C(=O)O)cc(S(N)(=O)=O)c1Sc1ccccc1
Second: CS(=O)(=O)c1cc(Br)ccc1CN1C(=O)c2ccccc2C1=O
The melting point of the first is higher: 192 to 193 °C for the first, 188 to 190 °C for the second.

Compared with `Cc1ccc(C(=O)NCCCCOc2ccc(-n3ccnc3)cc2)cc1`, `BrCCCCCCOc1ccc(C2=NCCO2)cc1` is lower in melting point: 128 to 130 °C for the first, 79 to 81 °C for the second.

First: Cn1ncc(/C=C/C(=O)Nc2ccc(CS(C)(=O)=O)cc2)c1-c1ccc(F)cc1
Second: CC1=C(CCO)c2cc(F)ccc2/C1=C\c1ccc(S(C)(=O)=O)cc1
The melting point of the first is higher: 251 to 252 °C for the first, 118 °C for the second.

First: CC(C)(C)OC(=O)NC(Cc1ccc(O)cc1)C(=O)N1CCc2c(sc(N)c2C(=O)c2ccccc2)C1 (centres undefined)
Second: O=C(Nc1ccc(N2CCOCC2)cc1)c1ccccc1C(c1ccc(O)cc1)c1ccc(O)cc1
The melting point of the first is lower: 143 to 145 °C for the first, 151 to 155 °C for the second.

First: Cc1cc(C)c2nc(N(CC(C)N3CCOCC3)C3CCNCC3)n(Cc3nc(C)ccc3O)c2c1 (centres undefined)
Second: CC(C)S(=O)(=O)c1ccc2c(c1)nc(CC(C)(C)C)n2CCN1CCOCC1
The melting point of the first is higher: 223 °C for the first, 151 °C for the second.

First: Cc1nc(C(=O)NCCO[N+](=O)[O-])cs1
Second: CCOC(=O)c1nc(NC)sc1C(=O)CBr
The melting point of the first is lower: 78 to 79 °C for the first, 130 to 132 °C for the second.

First: O=[N+]([O-])c1cncnc1O
Second: O=Cc1ccc(-c2ccc(C(=O)O)cc2)c([N+](=O)[O-])c1
The melting point of the first is higher: 300 °C for the first, 227 to 235 °C for the second.

Compared with `CCCOC(=O)C1=C(C)NC(C=O)=C(C(=O)OC)C1c1ccccc1C#N` (centres undefined), `CCOC(=O)C(=NO)c1c[nH]c2c(CC)cccc12` is higher in melting point: 138 to 141 °C for the first, 167 to 169 °C for the second.

Compared with `COCCOc1cc2ncc(C#N)c(Cl)c2cc1OC`, `COc1cccc2c(Nc3cccc(N(C)C)c3)c(C#N)cnc12` is higher in melting point: 178 to 180 °C for the first, 222 to 225 °C for the second.

First: CCCCCCCCCCCCCCCCN[C@H](C(=O)N[C@H](C(=O)O)C(C)C)C(C)C
Second: CC(=O)Oc1ccc(CCl)cc1C(OC(C)=O)OC(C)=O
The melting point of the first is higher: 120 to 123 °C for the first, 93 to 95 °C for the second.

First: COC(=O)N1CCc2cc(S(=O)(=O)Cl)ccc21
Second: CC(=O)C1CCC2=C(C1)C1OC2c2cc3ccccc3cc21 (centres undefined)
The melting point of the first is lower: 113 to 114 °C for the first, 158 to 160 °C for the second.

Compared with `O=C(c1cc2cc(OCc3ccccc3)ccc2[nH]1)C12CC3CC(CC(C3)C1)C2`, `COc1ccc2c(c1)-c1c([nH]c3c1-c1cc(OC)ccc1CC3)CC2` is higher in melting point: 189 to 191 °C for the first, 206 °C for the second.

Compared with `O=C(O)c1cnn(CCCCN2CCN(c3ncccn3)CC2)c1`, `CCCC1N=Cc2cc(Cl)nc(=O)n21` (centres undefined) is higher in melting point: 104 to 105 °C for the first, 194 to 196 °C for the second.

Compound `CC1(NC2=NS(=O)(=O)c3sc(Cl)cc3N2)CCC1` has a melting point of 294 to 296 °C.
